Measurements reported in patent US7468391B2, “Methods for treating retinoid responsive disorders using selective inhibitors of CYP26A and CYP26B” (Allergan, Inc., priority 2003, dated 2008).
pIC50, pKd: −log10 of the molar value.

Legend:
CYP26A (P450RAI-1) = target: T1, CYP26A (P450RAI-1) (Homo sapiens, UniProt O43174); assay: Cell-based inhibition of RA metabolism in CYP26A stably transfected HeLa cells; details: stably transfected HeLa cells, [3H]-RA, 3 hours at 37° C.; read-out: P450RAI-1 Whole cell IC50
T1 construct: expressed in transfected cells; host or cells: HeLa
T1 sequence (O43174 1-497): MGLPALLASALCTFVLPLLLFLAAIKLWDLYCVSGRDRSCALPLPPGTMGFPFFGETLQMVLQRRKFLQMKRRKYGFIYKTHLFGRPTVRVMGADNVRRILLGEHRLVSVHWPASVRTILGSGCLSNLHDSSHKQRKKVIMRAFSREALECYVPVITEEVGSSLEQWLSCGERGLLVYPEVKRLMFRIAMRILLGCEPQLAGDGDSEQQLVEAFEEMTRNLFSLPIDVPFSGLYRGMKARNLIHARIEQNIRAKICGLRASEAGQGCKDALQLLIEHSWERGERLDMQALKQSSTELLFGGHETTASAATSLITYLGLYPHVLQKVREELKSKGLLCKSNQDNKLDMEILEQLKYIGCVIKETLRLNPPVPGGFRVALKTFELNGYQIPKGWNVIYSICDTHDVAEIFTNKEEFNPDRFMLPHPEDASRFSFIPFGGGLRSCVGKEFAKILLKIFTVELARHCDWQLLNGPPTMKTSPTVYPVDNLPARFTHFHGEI
Procedure, shortened: (§1)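 Stably transfected HeLa cells (5×10^5/well) in MEM with 10% FBS and 0.05 μCi [3H]-RA, compounds at 10, 1 or 0.1 μM final, 3 h at 37° C. Retinoids extracted by modified Bligh-Dyer (methylene chloride); aqueous radioactivity counted; ID50 for 50% inhibition of RA metabolism derived from log-transformed data.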

CYP26B (P450RAI-2) = target: T2, CYP26B (P450RAI-2) (Homo sapiens, UniProt Q9NR63); assay: Cell-based inhibition of RA metabolism in CYP26B stably transfected HeLa cells; details: stably transfected HeLa cells, [3H]-RA, 3 hours at 37° C.; read-out: P450RAI-2 Whole cell IC50
T2 construct: expressed in transfected cells; host or cells: HeLa
T2 sequence (Q9NR63 1-512): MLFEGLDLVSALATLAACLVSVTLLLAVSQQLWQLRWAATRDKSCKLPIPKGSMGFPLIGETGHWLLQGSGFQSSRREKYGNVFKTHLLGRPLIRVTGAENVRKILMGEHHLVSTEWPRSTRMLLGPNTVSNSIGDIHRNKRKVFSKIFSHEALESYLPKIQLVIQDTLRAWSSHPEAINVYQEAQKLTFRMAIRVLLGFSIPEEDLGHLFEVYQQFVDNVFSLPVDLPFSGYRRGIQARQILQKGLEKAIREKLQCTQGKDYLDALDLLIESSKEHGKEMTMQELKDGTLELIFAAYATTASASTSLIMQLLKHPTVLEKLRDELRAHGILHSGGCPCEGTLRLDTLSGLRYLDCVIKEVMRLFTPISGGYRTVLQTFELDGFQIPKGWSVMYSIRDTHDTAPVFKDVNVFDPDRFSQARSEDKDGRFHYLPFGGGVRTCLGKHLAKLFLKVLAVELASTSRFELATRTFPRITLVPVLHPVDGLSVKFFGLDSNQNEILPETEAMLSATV
Procedure, shortened: as §1

RAR β [1] = target: T3, RAR β (Homo sapiens, UniProt P10826); assay: RAR β EC50/(efficacy); format: cell-based; details: value in brackets of cell EC50/(EFFICACY)/Kd
T3 sequence (P10826 1-455): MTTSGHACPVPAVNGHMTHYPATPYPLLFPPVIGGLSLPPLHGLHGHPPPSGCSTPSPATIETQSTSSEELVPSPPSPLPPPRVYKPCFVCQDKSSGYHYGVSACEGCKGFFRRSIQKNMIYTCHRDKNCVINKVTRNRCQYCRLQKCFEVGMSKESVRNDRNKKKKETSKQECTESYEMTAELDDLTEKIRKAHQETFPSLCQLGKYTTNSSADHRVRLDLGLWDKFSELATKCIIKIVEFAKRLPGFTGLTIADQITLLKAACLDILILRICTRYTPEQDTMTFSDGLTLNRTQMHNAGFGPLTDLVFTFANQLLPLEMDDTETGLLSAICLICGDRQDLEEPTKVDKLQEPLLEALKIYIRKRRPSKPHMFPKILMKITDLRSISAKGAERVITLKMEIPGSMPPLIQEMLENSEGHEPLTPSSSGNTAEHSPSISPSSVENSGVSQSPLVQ

RAR γ [2] = target: T4, RAR γ (Homo sapiens, UniProt P13631); assay: RAR γ EC50/(efficacy); format: cell-based; details: value in brackets of cell EC50/(EFFICACY)/Kd
T4 sequence (P13631 1-454): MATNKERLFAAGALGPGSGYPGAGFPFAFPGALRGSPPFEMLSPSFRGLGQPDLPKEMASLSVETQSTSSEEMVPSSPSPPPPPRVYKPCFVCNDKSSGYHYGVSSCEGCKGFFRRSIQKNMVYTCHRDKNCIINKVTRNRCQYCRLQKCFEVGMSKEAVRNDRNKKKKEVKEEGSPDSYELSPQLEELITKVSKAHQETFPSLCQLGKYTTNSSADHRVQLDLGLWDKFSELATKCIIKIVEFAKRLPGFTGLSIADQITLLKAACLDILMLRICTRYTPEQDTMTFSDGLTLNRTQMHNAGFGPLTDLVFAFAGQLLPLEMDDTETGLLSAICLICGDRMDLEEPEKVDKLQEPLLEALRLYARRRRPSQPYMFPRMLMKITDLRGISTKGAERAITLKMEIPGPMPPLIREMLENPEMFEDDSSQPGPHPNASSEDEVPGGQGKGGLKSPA

RAR α = target: T5, RAR α (Homo sapiens, UniProt P10276); assay: RAR α Kd; format: binding; details: last item of cell EC50/(EFFICACY)/Kd
T5 sequence (P10276 1-462): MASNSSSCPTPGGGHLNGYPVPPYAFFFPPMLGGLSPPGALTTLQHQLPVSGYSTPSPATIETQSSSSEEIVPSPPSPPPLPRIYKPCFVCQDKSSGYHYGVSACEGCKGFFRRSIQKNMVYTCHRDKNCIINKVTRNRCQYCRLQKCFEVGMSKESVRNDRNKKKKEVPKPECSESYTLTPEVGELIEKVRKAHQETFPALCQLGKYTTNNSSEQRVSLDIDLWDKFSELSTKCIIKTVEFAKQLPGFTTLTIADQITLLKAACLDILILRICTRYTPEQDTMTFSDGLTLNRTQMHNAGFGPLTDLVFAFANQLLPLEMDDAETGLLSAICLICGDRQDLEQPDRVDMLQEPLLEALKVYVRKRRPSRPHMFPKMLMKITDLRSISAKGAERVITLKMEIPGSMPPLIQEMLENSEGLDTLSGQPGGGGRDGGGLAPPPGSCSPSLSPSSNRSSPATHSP

RAR β [3] = target: T3, RAR β; assay: RAR β Kd; format: binding; details: last item of cell EC50/(EFFICACY)/Kd
RAR γ [4] = target: T4, RAR γ; assay: RAR γ Kd; format: binding; details: last item of cell EC50/(EFFICACY)/Kd

| Compound | pIC50 (CYP26A (P450RAI-1)) | pIC50 (CYP26B (P450RAI-2)) | RAR β (EFFICACY) (RAR β [1]) | RAR γ (EFFICACY) (RAR γ [2]) | pKd (RAR α) | pKd (RAR β [3]) | pKd (RAR γ [4]) |
| --- | --- | --- | --- | --- | --- | --- | --- |
| Cc1ccc(C(C)(C)C)cc1C#Cc1ccc(/C=C/C(=O)O)cc1 [Compound 36, 3-[4-(5-tert-Butyl-2-methyl-phenylethynyl)-phenyl]-acrylic acid] | < 5.00 | 6.40 | 40 | 15 | < 5.00 | 5.45 | 5.68 |
| C/C(=C\c1ccc(C#Cc2cccc(CN(C)C3CC3)c2)cc1)C(=O)O [Compound 33, 3-(4-{3-[(Cyclopropyl-methyl-amino)-methyl]-phenylethynyl}-phenyl)-2-methyl-acrylic acid] | < 5.00 | 6.00 | 30 | 10 | 5.49 | – | < 5.00 |
| CN(C1CC1)C1CCC(C)(C)c2cc(C#Cc3ccc(/C=C/C(=O)O)cc3)cc(C3CC3)c21 (centres unmarked) [Compound 48, 3-{4-[4-Cyclopropyl-5-(cyclopropyl-methyl-amino)-8,8-dimethyl-5,6,7,8-tetrahydro-naphthalen-2-ylethynyl]-phenyl}-acrylic acid] | 6.15 | – | 40 | 25 | – | – | – |
| CCOC(=O)C1=C(C)CC(C)(C)c2cc(C#Cc3ccc(CC(=O)O)c(F)c3)ccc21 [Compound 59, 6-(4-Carboxymethyl-3-fluoro-phenylethynyl)-2,4,4-trimethyl-3,4-dihydro-naphthalene-1-carboxylic acid ethyl ester] | 5.92 | < 5.00 | 35 | – | < 5.00 | 5.54 | < 5.00 |
| CC1(C)CC(C)(C)c2cc(C#Cc3ccc(CC(=O)O)c(F)c3)cc(O)c2O1 [Compound 10, [2-Fluoro-4-(8-hydroxy-2,2,4,4-tetramethyl-chroman-6-ylethynyl)-phenyl]-acetic acid] | 7.15 | 6.15 | 15 | – | < 5.00 | < 5.00 | < 5.00 |
| CN(Cc1cccc(C#Cc2ccc(/C=C/C(=O)O)cc2)c1)C1CC1 [Compound 31, (E)-3-(4-{3-[(Cyclopropyl-methyl-amino)-methyl]-phenylethynyl}-phenyl)-acrylic acid] | < 5.00 | 6.22 | 25 | – | < 5.00 | < 5.00 | < 5.00 |

The next lines start with the values.

| pIC50 (CYP26A (P450RAI-1)) | pIC50 (CYP26B (P450RAI-2)) | RAR β (EFFICACY) (RAR β [1]) | RAR γ (EFFICACY) (RAR γ [2]) | pKd (RAR α) | pKd (RAR β [3]) | pKd (RAR γ [4]) | Compound |
| --- | --- | --- | --- | --- | --- | --- | --- |
| 6.92 | < 5.00 | 20 | 15 | < 5.00 | < 5.00 | < 5.00 | CC1(C)CC2(CC2)Oc2c(C3CC3)cc(C#Cc3ccc(/C=C(\Cl)C(=O)O)cc3)cc21 [Compound 4] |
| 6.74 | < 5.00 | 15 | – | < 5.00 | < 5.00 | < 5.00 | COc1cc(C#CC2=CCC(/C=C(\C)C(=O)O)C=C2)cc2c1C(N(C)C1CC1)CCC2(C)C (centres unmarked) [Compound 30, (E)-3-{4-[5-(Cyclopropyl-methyl-amino)-4-methoxy-8,8-dimethyl-5,6,7,8-tetrahydro-naphthalen-2-ylethynyl]-cyclohexa-2,4-dienyl}-2-methyl-acrylic acid] |
| 7.46 | 5.30 | 30 | – | 5.07 | 5.14 | 5.11 | CCOC(=O)c1cc(C#Cc2ccc(CC(=O)O)cc2)cc2c1C(N(C)C1CC1)CCC2(C)C (centres unmarked) [Compound 24, 3-(4-Carboxymethyl-phenylethynyl)-8-(cyclopropyl-methyl-amino)-5,5-dimethyl-5,6,7,8-tetrahydro-naphthalene-1-carboxylic acid ethyl ester] |
| 6.70 | < 5.00 | 5 | – | < 5.00 | < 5.00 | < 5.00 | CC(C(=O)O)c1ccc(C#Cc2ccc3c(c2)C(C)(C)CCC3N(C)C2CC2)cc1 (centres unmarked) [Compound 51, 2-{4-[5-(Cyclopropyl-methyl-amino)-8,8-dimethyl-5,6,7,8-tetrahydro-naphthalen-2-ylethynyl]-phenyl}-propionic acid] |
| 7.80 | < 5.00 | – | 30 | < 5.00 | < 5.00 | < 5.00 | CC(C)Oc1cc(C#Cc2ccc(CC(=O)O)cc2)cc2c1C(N(C)C1CC1)CCC2(C)C (centres unmarked) [Compound 41, {4-[5-(Cyclopropyl-methyl-amino)-4-isopropoxy-8,8-dimethyl-5,6,7,8-tetrahydro-naphthalen-2-ylethynyl]-phenyl}-acetic acid] |
| 6.40 | – | 50 | 35 | 5.22 | 5.30 | 5.11 | CCOC(=O)C1CCC(C)(C)c2cc(C#Cc3ccc(CC(=O)O)cc3)c(C)cc21 (centres unmarked) [Compound 57, 6-(4-Carboxymethyl-phenylethynyl)-4,4,7-trimethyl-1,2,3,4-tetrahydro-naphthalene-1-carboxylic acid ethyl ester] |
| 7.30 | < 5.00 | 15 | – | 6.02 | 5.32 | < 5.00 | CC(C(=O)O)c1ccc(C#Cc2cc(CN(C)C3CC3)c3c(c2)C(C)(C)CC(C)(C)O3)cc1 (centres unmarked) [Compound 8, 2-(4-{8-[(Cyclopropyl-methyl-amino)-methyl]-2,2,4,4-tetramethyl-chroman-6-ylethynyl}-phenyl)-propionic acid] |
